Assay results reported in patent US9988403B2, “Compositions and methods for treating cancer with aberrant lipogenic signaling” (Thomas Jefferson University, priority 2012, dated 2018).

Test system: Drosophila
Assay: Drosophila development, viability and life span on compound food
Assay type: in vivo

SMILES: CC1(C)OB(c2ccc(/C=C/c3ccc(O)cc3)cc2)OC1(C)C [BF102]
- Drosophila development and viability (200 μM in food): do not affect
- life span of adult flies (adult flies fed food mixed with compound, data not shown): do not have any obvious effect
